From patent US9273290B2, “Method for producing phosphite dehydrogenase protein and use thereof” (HIROSHIMA UNIVERSITY, priority 2011, dated 2016)
“And” between values parts separate entries of the source, which are not always exact repeats. Identical values can stand only once.

Legend:
[1] = molecular target: T1, Pseudomonas stutzeri WM88 phosphite dehydrogenase, wild type, SEQ ID NO: 3, C-terminal His tag fusion (PtxDPst) (Stutzerimonas stutzeri, UniProt O69054); experiment: Activity of phosphite dehydrogenase protein in the presence of inhibitor; type: biochemical; set-up: key to relative value of OD340 (activity in the presence of inhibitor, control = 100): OD340 relative to no-protein negative control = 100; conditions: 30° C., 60 minutes; for relative value of OD340 (activity in the presence of inhibitor, control = 100): 50 μL of 40 mM inhibitor in the reaction solution (500 μL in total); for activity in the presence of inhibitor (in words): 50 μL of 40 mM inhibitor in the reaction solution
T1 construct: His tag (C); made in house; host or cells: E. coli Rosetta2 (DE3), plasmid pET21b
T1 sequence (O69054 1-336): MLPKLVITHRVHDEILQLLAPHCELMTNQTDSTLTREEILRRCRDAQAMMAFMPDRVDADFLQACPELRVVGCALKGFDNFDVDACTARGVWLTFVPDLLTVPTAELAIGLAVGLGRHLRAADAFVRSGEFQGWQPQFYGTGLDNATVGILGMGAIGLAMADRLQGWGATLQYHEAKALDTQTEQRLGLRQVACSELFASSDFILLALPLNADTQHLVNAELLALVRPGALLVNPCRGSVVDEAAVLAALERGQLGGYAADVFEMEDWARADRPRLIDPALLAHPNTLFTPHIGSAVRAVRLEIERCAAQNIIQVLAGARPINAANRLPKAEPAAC
Description: (§1) By a well-known method, the base sequence of SEQ ID NO: 2 or a phosphite dehydrogenase gene (SEQ ID NO: 4) of P stutzeri WM88 was inserted into a plasmid pET21b (produced by Novagen) (an amino acid sequence of the protein encoded by the base sequence of SEQ ID NO: 4 is shown in SEQ ID NO: 3) to prepare (i) an expression vector of a fusion protein (see “PtxD4506” in FIG. 2) in which the C-terminal of the phosphite dehydrogenase protein of SEQ ID NO: 1 is labeled with a His tag or (ii) an expression vector of a fusion protein (see “PtxDPst” in FIG. 2) in which the C-terminal of the phosphite dehydrogenase protein of P stutzeri WM88 is labeled with a His tag.
(§2) The supernatant was supplied to a HisTrap column (produced by GE Healthcare) and, in accordance with protocols attached to the HisTrap column, a fusion protein in which a His tag was connected to the C-terminal of the phosphite dehydrogenase protein of SEQ ID NO: 1 was purified.
(§3) PtxD4506 and PtxDPst, which were purified with use of the HisTrap column in [3. […] An experimental method was based on a method described in the literature “Costas et al., Journal of Biological Chemistry, 2001, 276, 17429-17436.” The experimental method is briefly described below.
(§4) A reaction solution was prepared by mixing 100 μL of 100 mM MOPS-KOH (pH 7.25), 50 μL of 10 mM NAD, 5 μL of 5 mM phosphite, 50 μL of 40 mM inhibitor of various kinds (arsenite, nitrate, sulfate, or NaCl), 294 μL of H2O, and 1 μL of 0.5 mg/mL protein-containing solution (a PtxD4506-containing solution, a PtxDPst-containing solution, or a liquid which contained no protein (negative control)).
(§5) The reaction solution was reacted for 60 minutes. Note that the reaction solution containing the PtxD4506-containing solution was reacted at 45° C., and the reaction solution containing the PtxDPst-containing solution was reacted at 30° C. Subsequently, OD340 was measured. A relative value of OD340 of each sample was calculated relative to 100 of a value of OD340 of the reaction solution containing the liquid which contained no protein (negative control). Note that each experiment was conducted 4 times or more, and an average of relative values obtained in the 4 or 5 experiments was also calculated.

[2] = molecular target: T2, Ralstonia sp. strain 4506 phosphite dehydrogenase, SEQ ID NO: 1, C-terminal His tag fusion (PtxD4506) (Ralstonia sp. 4506, UniProt G4XDR8); experiment: as above; type: biochemical; conditions: 45° C., 60 minutes; for relative value of OD340 (activity in the presence of inhibitor, control = 100): 50 μL of 40 mM inhibitor in the reaction solution (500 μL in total); for activity in the presence of inhibitor (in words): 50 μL of 40 mM inhibitor in the reaction solution
T2 sequence (G4XDR8 1-336): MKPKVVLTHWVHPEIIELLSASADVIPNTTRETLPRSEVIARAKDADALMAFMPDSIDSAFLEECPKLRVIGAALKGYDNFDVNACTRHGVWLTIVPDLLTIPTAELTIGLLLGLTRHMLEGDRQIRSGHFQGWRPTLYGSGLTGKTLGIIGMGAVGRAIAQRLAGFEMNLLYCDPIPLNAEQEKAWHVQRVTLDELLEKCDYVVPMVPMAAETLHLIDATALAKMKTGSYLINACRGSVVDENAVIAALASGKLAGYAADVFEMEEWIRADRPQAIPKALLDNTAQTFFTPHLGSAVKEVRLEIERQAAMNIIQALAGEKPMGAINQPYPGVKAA
Description: as §1, §2, §3, §4, §5

[3] = molecular target: T2, Ralstonia sp. strain 4506 phosphite dehydrogenase, SEQ ID NO: 1, C-terminal His tag fusion (PtxD4506); experiment: Reaction kinetic analysis: NADH production rate at varied NAD+ concentration
[4] = molecular target: T1, Pseudomonas stutzeri WM88 phosphite dehydrogenase, wild type, SEQ ID NO: 3, C-terminal His tag fusion (PtxDPst); experiment: as above; type: biochemical; conditions: NAD+ 0.5 μM to 200 μM, 28° C., individual experiments 1-3
Description: as §1
The supernatant was supplied to a HisTrap column (produced by GE Healthcare) and, in accordance with protocols attached to the HisTrap column, a fusion protein in which a His tag was connected to the C-terminal of the phosphite dehydrogenase protein of SEQ ID NO: 1 was purified. […]
Reaction rates of respective PtxD4506 and PtxDPst were calculated on the basis of (Reaction formula 1) shown in the section [Background Art].
Specifically, in the reaction system of (Reaction formula 1), a production rate of NADH was measured with use of 7.5 μg of each of the fusion proteins PtxD4506 and PtxDPst while a concentration of a substrate (NAD^+) was gradually changed from 0.5 μM to 200 μM. […]

[5] = pH 7.25, average of 4 or 5 experiments
[6] = pH 7.25, individual experiments 1-5
[7] = NAD+ 0.5 μM to 200 μM, 40° C., individual experiments 1-3

Row | Compound | relative value of OD340 (activity in the presence of inhibitor, control = 100) [1, 5] | relative value of OD340 (activity in the presence of inhibitor, control = 100) [1, 6] | activity in the presence of inhibitor (in words) [1] | relative value of OD340 (activity in the presence of inhibitor, control = 100) [2, 5] | relative value of OD340 (activity in the presence of inhibitor, control = 100) [2, 6] | activity in the presence of inhibitor (in words) [2] | Kcat [3, 7] | Vmax [3, 7] | Vmax of PtxD4506 relative to that of PtxDPst ([3]; NAD+, PtxD4506 at 40° C., PtxDPst at 28° C.) | Kcat [4] | Vmax [4]
1 | O[As](O)O [Arsenite] | 86.6 | 82.3 and 90.4 and 88.6 and 91.4 and 90.7 | inhibited | 101.6 | 102.6 and 102.2 and 101.7 and 101.3 and 100.2 | maintained in a high level | – | – | – | – | –
2 | NC(=O)c1ccc[n+]([C@@H]2O[C@H](COP(=O)([O-])OP(=O)(O)OC[C@H]3O[C@@H](n4cnc5c(N)ncnc54)[C@H](O)[C@@H]3O)[C@@H](O)[C@H]2O)c1 [NAD+] | – | – | – | – | – | – | 4.262 s⁻¹ and 4.068 s⁻¹ and 3.54 s⁻¹ | 6.4 µmol/min/mg and 6.1 µmol/min/mg and 5.3 µmol/min/mg | about 1.4 times | 3.235 s⁻¹ and 2.732 s⁻¹ and 2.513 s⁻¹ | 4.9 µmol/min/mg and 4.1 µmol/min/mg and 3.8 µmol/min/mg
3 | O=[N+]([O-])O [Nitrate] | 18.3 | 15.3 and 21.8 and 20.3 and 20.1 and 14.0 | inhibited | 35.7 | 29.2 and 39.6 and 40.2 and 40.3 and 29.3 | maintained in a high level | – | – | – | – | –
4 | N.N.O=S(O)O [Sulfite] | 14.0 | 15.4 and 15.3 and 16.2 and 9.2 | – | 52.5 | 53.2 and 58.8 and 57.0 and 40.9 | – | – | – | – | – | –
5 | O=S(=O)(O)O [sulfate] | – | – | inhibited | – | – | maintained in a high level | – | – | – | – | –
